Data as given in paper PMC11077991, “The small molecule CBR-5884 inhibits the Candida albicans phosphatidylserine synthase” (mBio, 2024).

Key:
C57BL/6 j mice = tested on: C57BL/6 j mice; parameters: method as in PMID 25848045; conditions: high dose of 20 mg/kg; cited from earlier work
[1] = tested on: in vivo PS production in wild-type C. albicans; experiment: metabolic labeling of PS using probe C-L-SerN3; type: cell-based, Candida albicans; conditions: 170 µM CBR-5884, 1.5 mM probe
Experimental: The C-L-SerN3 probe [(S)-1-((3-azidopropyl)amino)-3-hydroxy-1-oxopropan-2-aminium chloride] was synthesized as described in reference ([59]). Cells grown overnight in YPD were washed three times in H2O and inoculated into minimal media at a starting OD600 of 0.05. Cells were shaken for 5 h before 1.5 mM C-L-SerN3 probe was added, along with 170 µM CBR-5884 or an equivalent volume of DMSO. Cells were then incubated for another 5 h before being washed three times with H2O, and 5% BSA in 1× PBS was used to treat cells for 20 min. The cells were then washed three times with 1× PBS and then resuspended to OD600 of 0.6 in 1 mL PBS + 1 µM AZDye 488 DBCO (Click chemistry tools, cat# 1278-1). Cells were covered with aluminum foil and rocked for 1 h, and the dye was removed by pelleting the cells at 5,000 × g followed by washing with shaking at 1,000 rpm three times in 1× PBS, and resuspended in 200 µL Fluoromount-G mounting medium (cat# 00-4958-02). For each treatment, 10 µL of cells was added to a glass slide and 3 µL fresh Fluoromount-G mounting medium was used to mix the sample. […] The samples were excited using light at a wavelength of 488 nm, and the resulting fluorescence was captured within the range of 498–550 nm using a HyD detector. […] A total of 40 cells from at least 10 images were used for the quantification in ImageJ software.

[2] = tested on: phospholipid levels in C. albicans; experiment: thin-layer chromatography of phospholipids; type: cell-based, Candida albicans; conditions: 170 µM, 2 h
Experimental: Wild-type SC5314 and cho1ΔΔ strains grown overnight in YPD were inoculated into fresh YPD at OD600 of 0.1 and were shaken for another 3 h. Then, 170 µM CBR-5884 or equivalent DMSO solvent was added to both wild-type and cho1ΔΔ cultures, and cells were shaken for another 2 h. Then, cells were washed with 1× PBS three times and normalized to a total OD600 of 1. The phospholipids were extracted with the hot ethanol method as described in reference ([14]). A Whatman 250 µm silica gel aluminum backed plate was treated, and separation of phospholipids was carried out as described in reference ([100]). Phospholipid standards PI, PE, PS, and PC were purchased from Avanti. The quantification of the phospholipids was done in ImageJ software.

purified Cho1 = experiment: CBR-5884 washout assay (radioactive PS synthase assay); type: biochemical, Candida albicans; conditions: 100 µM preincubated 2 h, buffer exchange
Experimental: For CBR-5884 washout assays, purified Cho1 was incubated with CBR-5884 at a final concentration of 100 µM, or equivalent DMSO, in 100 µL volume on ice for 2 h. The CBR-5884 was then washed out by exchanging with 4 mL 50 mM Tris-HCl at pH 8.0 and 0.1% digitonin three times in the Amicon Ultra Centrifugal Filter (10 kDa MWCO). The sample was concentrated to the volume of approximately 500 µL, and protein concentration was determined using the Pierce detergent-compatible Bradford assay kit. The reaction was set up with 50 mM Tris-HCl (pH 8.0), 1 mM MnCl2, 0.1% Triton X-100, 0.1% digitonin, 0.1 mM (4.7 mol %), 16:0 CDP-DAG (Avanti, cat# 870510), and 10 mM L-serine [spiked with 5% (by volume) L-[3H]-serine (15 Ci/mmol)] at a total volume of 100 µL, in the presence of 100 µM CBR-5884 or equivalent DMSO solvent. The reaction was stopped at 20, 40, and 60 min, and specific activity was calculated based on the slope of linear PS production, representing the initial velocity.

[3] = tested on: cancer cell lines with high serine biosynthetic activity (melanoma and breast cancer lines); parameters: method as in PMID 26831078; conditions: cited from earlier work

| Compound | tolerability (C57BL/6 j mice) | C-L-SerN3 fluorescence on the periphery of the cell [1] | PI levels [2] | relative PS level in wild-type strain vs DMSO [2] | relative PE levels ([2]; wild-type and cho1ΔΔ) | inhibition after preincubation and washout (purified Cho1) | toxicity to cancer cell lines [3] |
| --- | --- | --- | --- | --- | --- | --- | --- |
| O=C(C1CC1)N1CCN(Cn2sc3ccccc3c2=O)CC1 [LOC14] | well tolerated |  |  |  |  |  |  |
| CCOC(=O)c1sc(NC(=O)c2ccco2)c(SC#N)c1C [CBR-5884] |  | significantly diminished | not strongly affected | significantly dropped | significantly decreased | absence of inhibition | selectively toxic |
